Experimental data published in patent US20260015350A1, “AZAQUINAZOLINE PAN-KRAS INHIBITORS” (Mirati Therapeutics, Inc., priority 2022, published 2026).

Experiments:
[1] = target: T1, KRas^WT (Homo sapiens, UniProt P01116); test: KRas binding assay (TR-FRET tracer displacement), KRas WT; settings: for inhibition at 0.01 µM: single point, 10 nM compound, TR-FRET
T1 construct: Biotinylated KRas (corresponding to amino acids 1-169, produced at Accelegan Inc.); biotin (biotinylated); purchased Accelegan Inc
T1 sequence (P01116 1-169 isoform P01116-2): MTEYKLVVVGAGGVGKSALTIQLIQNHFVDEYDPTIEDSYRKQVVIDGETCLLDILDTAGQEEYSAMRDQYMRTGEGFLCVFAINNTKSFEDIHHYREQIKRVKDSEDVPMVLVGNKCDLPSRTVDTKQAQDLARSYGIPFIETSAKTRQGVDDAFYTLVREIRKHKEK

[2] = target: T2, KRas^G12A (Homo sapiens, UniProt P01116, G12A); test: KRas binding assay (TR-FRET tracer displacement), KRas G12A; settings: for inhibition at 0.01 µM: single point, 10 nM compound, TR-FRET
T2 construct: Biotinylated KRas (corresponding to amino acids 1-169, produced at Accelegan Inc.); biotin (biotinylated); purchased Accelegan Inc
T2 sequence (P01116 1-169 isoform P01116-2 G12A): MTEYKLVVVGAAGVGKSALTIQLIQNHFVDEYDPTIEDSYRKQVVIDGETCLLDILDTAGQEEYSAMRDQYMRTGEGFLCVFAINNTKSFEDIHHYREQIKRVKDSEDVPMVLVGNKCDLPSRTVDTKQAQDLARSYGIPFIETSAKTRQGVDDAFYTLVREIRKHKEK

[3] = target: T3, KRas^G12C (Homo sapiens, UniProt P01116, G12C); test: KRas binding assay (TR-FRET tracer displacement), KRas G12C; settings: for inhibition at 0.01 µM: single point, 10 nM compound, TR-FRET
T3 construct: Biotinylated KRas (corresponding to amino acids 1-169, produced at Accelegan Inc.); biotin (biotinylated); purchased Accelegan Inc
T3 sequence (P01116 1-169 isoform P01116-2 G12C): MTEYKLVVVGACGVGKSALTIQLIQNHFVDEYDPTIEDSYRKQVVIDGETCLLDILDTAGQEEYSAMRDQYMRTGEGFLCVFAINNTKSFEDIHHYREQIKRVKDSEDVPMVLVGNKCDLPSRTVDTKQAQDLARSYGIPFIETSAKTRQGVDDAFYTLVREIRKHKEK

[4] = target: T4, KRas^G12D (Homo sapiens, UniProt P01116, G12D); test: KRas binding assay (TR-FRET tracer displacement), KRas G12D
T4 construct: Biotinylated KRas (corresponding to amino acids 1-169, produced at Accelegan Inc.); biotin (biotinylated); purchased Accelegan Inc
T4 sequence (P01116 1-169 isoform P01116-2 G12D): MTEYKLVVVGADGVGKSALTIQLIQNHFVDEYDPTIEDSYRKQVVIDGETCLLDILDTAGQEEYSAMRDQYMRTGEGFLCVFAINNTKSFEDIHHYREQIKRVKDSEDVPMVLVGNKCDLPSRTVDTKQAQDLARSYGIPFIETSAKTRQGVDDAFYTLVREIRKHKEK

[5] = target: T5, KRas^G12R (Homo sapiens, UniProt P01116, G12R); test: KRas binding assay (TR-FRET tracer displacement), KRas G12R
T5 construct: Biotinylated KRas (corresponding to amino acids 1-169, produced at Accelegan Inc.); biotin (biotinylated); purchased Accelegan Inc
T5 sequence (P01116 1-169 isoform P01116-2 G12R): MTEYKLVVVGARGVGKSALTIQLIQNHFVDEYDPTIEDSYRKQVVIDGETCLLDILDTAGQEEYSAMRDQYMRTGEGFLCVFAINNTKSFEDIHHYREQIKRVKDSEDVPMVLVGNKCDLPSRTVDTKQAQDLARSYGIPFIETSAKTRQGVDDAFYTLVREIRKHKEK

[6] = target: T6, KRas^G12S (Homo sapiens, UniProt P01116, G12S); test: KRas binding assay (TR-FRET tracer displacement), KRas G12S; settings: for inhibition at 0.01 µM: single point, 10 nM compound, TR-FRET
T6 construct: Biotinylated KRas (corresponding to amino acids 1-169, produced at Accelegan Inc.); biotin (biotinylated); purchased Accelegan Inc
T6 sequence (P01116 1-169 isoform P01116-2 G12S): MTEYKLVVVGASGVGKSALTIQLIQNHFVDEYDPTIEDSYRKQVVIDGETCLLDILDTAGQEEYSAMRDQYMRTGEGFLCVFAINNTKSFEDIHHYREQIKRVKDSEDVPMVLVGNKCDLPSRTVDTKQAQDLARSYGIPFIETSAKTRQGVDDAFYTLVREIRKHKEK

[7] = target: T7, KRas^G12V (Homo sapiens, UniProt P01116, G12V); test: KRas binding assay (TR-FRET tracer displacement), KRas G12V
T7 construct: Biotinylated KRas (corresponding to amino acids 1-169, produced at Accelegan Inc.); biotin (biotinylated); purchased Accelegan Inc
T7 sequence (P01116 1-169 isoform P01116-2 G12V): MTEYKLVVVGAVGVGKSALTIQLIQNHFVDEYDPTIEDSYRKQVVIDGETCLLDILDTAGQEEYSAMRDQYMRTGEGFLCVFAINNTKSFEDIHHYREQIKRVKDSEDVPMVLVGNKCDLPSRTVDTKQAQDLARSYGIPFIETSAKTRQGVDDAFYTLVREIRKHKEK

[8] = target: T8, KRas^G13D (Homo sapiens, UniProt P01116, G13D); test: KRas binding assay (TR-FRET tracer displacement), KRas G13D; settings: for inhibition at 0.01 µM: single point, 10 nM compound, TR-FRET
T8 construct: Biotinylated KRas (corresponding to amino acids 1-169, produced at Accelegan Inc.); biotin (biotinylated); purchased Accelegan Inc
T8 sequence (P01116 1-169 isoform P01116-2 G13D): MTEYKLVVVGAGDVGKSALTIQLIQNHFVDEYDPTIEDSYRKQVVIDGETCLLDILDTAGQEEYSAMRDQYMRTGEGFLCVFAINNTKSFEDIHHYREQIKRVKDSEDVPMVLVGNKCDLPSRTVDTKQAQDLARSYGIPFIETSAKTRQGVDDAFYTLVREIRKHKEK

[9] = target: T9, KRas^Q61H (Homo sapiens, UniProt P01116, Q61H); test: KRas binding assay (TR-FRET tracer displacement), KRas Q61H; settings: for inhibition at 0.01 µM: single point, 10 nM compound, TR-FRET
T9 construct: Biotinylated KRas (corresponding to amino acids 1-169, produced at Accelegan Inc.); biotin (biotinylated); purchased Accelegan Inc
T9 sequence (P01116 1-169 isoform P01116-2 Q61H): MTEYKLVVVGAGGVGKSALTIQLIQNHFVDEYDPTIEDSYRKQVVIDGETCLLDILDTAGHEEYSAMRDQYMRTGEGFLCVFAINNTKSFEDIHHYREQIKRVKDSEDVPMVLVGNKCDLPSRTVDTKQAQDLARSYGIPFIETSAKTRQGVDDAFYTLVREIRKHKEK

[10] = test system: KRas-mediated phosphorylation of ERK in MKN1 cells; test: Inhibition of KRas-mediated phosphorylation of ERK (Cisbio HTRF pERK), MKN1 cells; format: cell-based; settings: Homo sapiens, MKN-1
Summary of the method: (§1)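 Phospho-ERK is quantified by HTRF with the Advanced pERK kit. Cells go in at 6,000/well in RPMI plus 10% FBS overnight at 37° C. under 5% CO2, with a 4-hour covered room-temperature incubation ahead of the read.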

[11] = test system: KRas-mediated phosphorylation of ERK in PSN1 cells; test: Inhibition of KRas-mediated phosphorylation of ERK (Cisbio HTRF pERK), PSN1 cells; format: cell-based; settings: Homo sapiens
Summary of the method: as §1

[12] = test system: KRas-mediated phosphorylation of ERK in AsPC-1 cells; test: Inhibition of KRas-mediated phosphorylation of ERK (Cisbio HTRF pERK), AsPC-1 cells; format: cell-based; settings: Homo sapiens; for IC50: ASPC1, AsPC-1 cells, HTRF pERK
Summary of the method: (§2)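 Using 6,000 cells per well, compounds are applied for 3 hrs and cells then lysed at 4° C with shaking for 40 mins. Phospho-ERK is measured by HTRF after 2 hrs of lysate incubation with the d2/Cryptate antibody mixture.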

[13] = test system: KRas-mediated phosphorylation of ERK in H727 cells; test: Inhibition of KRas-mediated phosphorylation of ERK (Cisbio HTRF pERK), H727 cells; format: cell-based; settings: Homo sapiens; for IC50: NCI-H727, H727 cells, HTRF pERK
Summary of the method: as §2

[14] = test system: KRas-mediated phosphorylation of ERK in A549 cells; test: Inhibition of KRas-mediated phosphorylation of ERK (Cisbio HTRF pERK), A549 cells; format: cell-based; settings: Homo sapiens; for inhibition at 0.1 µM: A549, 3 h, single point, 100 nM compound, 3 hrs; for IC50: HTRF pERK
Summary of the method: (§3)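 Compound treatment lasts 3 hrs on 6,000 seeded cells, testing 10 doses from a 10 uM top concentration in 3-fold decrements at 0.8% final DMSO. Trametinib at 0.2 uM defines the Min signal. Detection is HTRF on cold-lysed cell extracts.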

[15] = test system: KRas-mediated phosphorylation of ERK in H460 cells; test: Inhibition of KRas-mediated phosphorylation of ERK (Cisbio HTRF pERK), H460 cells; format: cell-based; settings: Homo sapiens; for inhibition at 0.1 µM: NCI-H460, 3 h, single point, 100 nM compound, 3 hrs; for IC50: NCI-H460, HTRF pERK
Summary of the method: as §2

[16] = test system: KRas-mediated phosphorylation of ERK in HCT116 cells; test: Inhibition of KRas-mediated phosphorylation of ERK (Cisbio HTRF pERK), HCT116 cells; format: cell-based; settings: Homo sapiens; for inhibition at 0.1 µM: HCT-116, 3 h, single point, 100 nM compound, 3 hrs; for IC50: HCT-116, HTRF pERK
Summary of the method: as §3

[17] = test system: KRas-mediated phosphorylation of ERK in H358 cells; test: Inhibition of KRas-mediated phosphorylation of ERK (Cisbio HTRF pERK), H358 cells; format: cell-based; settings: Homo sapiens; for inhibition at 0.1 µM: NCI-H358, 3 h, single point, 100 nM compound, 3 hrs; for IC50: NCI-H358, HTRF pERK
Summary of the method: as §2

Structure (SMILES) | inhibition at 0.01 µM [1] [%] | inhibition at 0.01 µM [2] [%] | inhibition at 0.01 µM [3] [%] | IC50 [4] [nM] | IC50 [5] [nM] | inhibition at 0.01 µM [6] [%] | IC50 [7] [nM] | inhibition at 0.01 µM [8] [%] | inhibition at 0.01 µM [9] [%] | IC50 [10] [nM] | IC50 [11] [nM] | IC50 [12] [nM] | IC50 [13] [nM] | IC50 [14] [nM] | IC50 [15] [nM] | IC50 [16] [nM] | inhibition at 0.1 µM [14] [%] | inhibition at 0.1 µM [15] [%] | inhibition at 0.1 µM [16] [%] | inhibition at 0.1 µM [17] [%] | also measured
CCc1c(F)ccc2cc(O)cc(-c3ncc4c(N5CC6CCC(C5)C6C#N)nc(OC[C@@]56CCCN5C[C@H](F)C6)nc4c3F)c12 (stereo partly drawn) [Example 559, 3-(7-(8-ethyl-7-fluoro-3-hydroxynaphthalen-1-yl)-8-fluoro-2-(((2R,7aS)-2-fluorohexahydro-1H-pyrrolizin-7a-yl)methoxy)pyrido[4,3-d]pyrimidin-4-yl)-3-azabicyclo[3.2.1]octane-8-carbonitrile] | 73 | 70 | 89 | 15 | < 2 | 82 | < 2 | 82 | 82 | 5 | 9490 | 105 | 20 |  |  |  | 75 | 89 | 55 | 98 | 
O=S1(=O)CCC2(CCCN(c3nc(OC[C@@]45CCCN4C[C@H](F)C5)nc4c(F)c(-c5cc(O)cc6cccc(Cl)c56)ncc34)C2)N1 (stereo partly drawn) [Example 604, 7-(7-(8-chloro-3-hydroxynaphthalen-1-yl)-8-fluoro-2-(((2R,7aS)-2-fluorohexahydro-1H-pyrrolizin-7a-yl)methoxy)pyrido[4,3-d]pyrimidin-4-yl)-2-thia-1,7-diazaspiro[4.5]decane 2,2-dioxide] |  |  |  | < 2 | < 2 |  | < 2 |  |  | 2 | 425 | 81 | 71 |  |  |  | 27 | 69 | 64 | 94 | IC50 ([1]; TR-FRET tracer displacement, KRas WT): < 2 nM; IC50 ([2]; TR-FRET tracer displacement, KRas G12A): 2 nM; IC50 ([3]; TR-FRET tracer displacement, KRas G12C): < 2 nM; IC50 ([6]; TR-FRET tracer displacement, KRas G12S): < 2 nM; IC50 ([8]; TR-FRET tracer displacement, KRas G13D): < 2 nM; IC50 ([9]; TR-FRET tracer displacement, KRas Q61H): < 2 nM; inhibition at 0.1 µM ([12]; ASPC1, 3 h, single point, 100 nM compound, 3 hrs, AsPC-1 cells): 53%; inhibition at 0.1 µM ([13]; NCI-H727, 3 h, single point, 100 nM compound, 3 hrs, H727 cells): 47%
CCc1c(F)ccc2cc(O)cc(-c3ncc4c(N5CCCC6(CCS(=O)(=O)N6)C5)nc(OC[C@@]56CCCN5C[C@H](F)C6)nc4c3F)c12 (stereo partly drawn) [Example 643, 7-(7-(8-ethyl-7-fluoro-3-hydroxynaphthalen-1-yl)-8-fluoro-2-(((2R,7aS)-2-fluorohexahydro-1H-pyrrolizin-7a-yl)methoxy)pyrido[4,3-d]pyrimidin-4-yl)-2-thia-1,7-diazaspiro[4.5]decane 2,2-dioxide] | 98 | 88 | 99 | < 2 | < 2 | 98 | < 2 | 99 | 100 | 4 | 625 | 6 | 21 | 16 | 5 | 13 |  | 100 | 87 |  | IC50 [17]: 2 nM
CCc1c(F)ccc2cc(O)cc(-c3ncc4c(N5CCCn6nc(C(=O)N(C)C)c(C)c6C5)nc(OC[C@@]56CCCN5C[C@H](F)C6)nc4c3F)c12 [Example 670, 5-(7-(8-ethyl-7-fluoro-3-hydroxynaphthalen-1-yl)-8-fluoro-2-(((2R,7aS)-2-fluorotetrahydro-1H-pyrrolizin-7a(5H)-yl)methoxy)pyrido[4,3-d]pyrimidin-4-yl)-N,N,3-trimethyl-5,6,7,8-tetrahydro-4H-pyrazolo[1,5-a][1,4]diazepine-2-carboxamide] | 98 | 98 | 99 | < 2 | < 2 | 100 | < 2 | 98 | 97 | 2 | 4680 | 2 | 5 | 9 | 17 | 53 |  |  |  |  | IC50 [17]: 1 nM

More lines, main results first:

inhibition at 0.01 µM [1] [%] | inhibition at 0.01 µM [2] [%] | inhibition at 0.01 µM [3] [%] | IC50 [4] [nM] | IC50 [5] [nM] | inhibition at 0.01 µM [6] [%] | IC50 [7] [nM] | inhibition at 0.01 µM [8] [%] | inhibition at 0.01 µM [9] [%] | IC50 [10] [nM] | IC50 [11] [nM] | IC50 [12] [nM] | IC50 [13] [nM] | IC50 [14] [nM] | IC50 [15] [nM] | IC50 [16] [nM] | Structure (SMILES) | inhibition at 0.1 µM [14] [%] | inhibition at 0.1 µM [15] [%] | inhibition at 0.1 µM [16] [%] | inhibition at 0.1 µM [17] [%] | also measured
93 | 97 | 98 | < 2 | < 2 | 98 | < 2 | 93 | 94 | 7 | 4110 | 28 | 6 |  |  |  | CCc1c(F)ccc2cc(O)cc(-c3ncc4c(N5CCCCn6nc(C(=O)N(C)C)cc6C5)nc(OC[C@@]56CCCN5C[C@H](F)C6)nc4c3F)c12 [Example 671, 5-(7-(8-ethyl-7-fluoro-3-hydroxynaphthalen-1-yl)-8-fluoro-2-(((2R,7aS)-2-fluorotetrahydro-1H-pyrrolizin-7a(5H)-yl)methoxy)pyrido[4,3-d]pyrimidin-4-yl)-N,N-dimethyl-4,5,6,7,8,9-hexahydropyrazolo[1,5-a][1,4]diazocine-2-carboxamide] | 60 | 60 | 35 | 98 | 
91 | 93 | 98 | < 2 | < 2 | 97 | < 2 | 92 | 95 | 6 | > 10000 | 9 | 21 | 30 | 69 | 191 | CCc1c(F)ccc2cc(O)cc(-c3ncc4c(N5CCC(O)c6nn(C(=O)N(C)C)cc6C5)nc(OC[C@@]56CCCN5C[C@H](F)C6)nc4c3F)c12 (stereo partly drawn) [Example 674, 5-(7-(8-ethyl-7-fluoro-3-hydroxynaphthalen-1-yl)-8-fluoro-2-(((2R,7aS)-2-fluorohexahydro-1H-pyrrolizin-7a-yl)methoxy)pyrido[4,3-d]pyrimidin-4-yl)-8-hydroxy-N,N-dimethyl-5,6,7,8-tetrahydropyrazolo[4,3-c]azepine-2(4H)-carboxamide] | 74 | 63 | 17 | 97 | IC50 [17]: 2 nM
91 | 93 | 97 | < 2 | < 2 | 96 | < 2 | 90 | 92 | 16 | 7620 | 81 | 37 |  |  |  | CCc1c(F)ccc2cc(O)cc(-c3ncc4c(N5CCCCn6nc(C(=O)N7CCOCC7)cc6C5)nc(OC[C@@]56CCCN5C[C@H](F)C6)nc4c3F)c12 [Example 690, (5-(7-(8-ethyl-7-fluoro-3-hydroxynaphthalen-1-yl)-8-fluoro-2-(((2R,7aS)-2-fluorotetrahydro-1H-pyrrolizin-7a(5H)-yl)methoxy)pyrido[4,3-d]pyrimidin-4-yl)-4,5,6,7,8,9-hexahydropyrazolo[1,5-a][1,4]diazocin-2-yl)(morpholino)methanone] | 4 | 37 | 20 | 79 | 
